Results as given in patent US6310090A, “Process and product for enhancing immune response in companion animals using a combination of antioxidants” (priority 2000, dated 2001).

Columns and labels:
CD21+ B cells = assay: lymphocyte subsets by flow cytometry, lutein supplementation; type: cell-based, dog (Beagle); settings: dietary lutein
Method: (§3) Fifty six female Beagle dogs (17 to 18 months old; average body weight 11.4±0.4 kg) were randomly assigned to be supplemented daily with 0, 5, 10 or 20 mg lutein for 17 weeks. The lutein contained 76.66% lutein and 5.23% zeaxanthin. The lutein supplement was resuspended in soybean oil to the appropriate concentration and 1 mL administered perorally at 0800 h daily. Food (200 g/dog/d) was offered immediately after the lutein supplementation. […] All dogs were housed in 2×2 m pens (2 dogs/pen) in a temperature (20 to 22° C.) and light (14 h light) controlled facility. Body weight was recorded at weeks 0, 6, and 12.
(§4) Blood was collected by jugular venipuncture into heparinized evacuated tubes on weeks 0, 2, 4, 8 and 12 and aliquots used for HPLC analysis and for assessing immune responses.
(§5) Blood leukocytes were separated using Histopaque-1119 (Sigma, St. Louis, Mo.). Cells were washed three times with phosphate-buffered saline (PBS, pH 7.4) and contaminating erythrocytes were lysed in NH4 CI (8.4 g/L). Lymphocyte subsets were determined by flow cytometry (FACScan, Becton Dickinson, San Jose, Calif.). […]
(§6) Appropriate negative controls were included to correct for background fluorescence. Data were expressed as the percentage of positive-staining cells corrected for cells stained nonspecifically with the secondary antibody.

[1] = test system: peripheral blood mononuclear cells (PBMC); assay: mitogen-induced PBMC proliferation, lutein supplementation; type: cell-based, dog (Beagle)
Method: Blood collected on weeks 0, 2, 4, 8 and 12 were used to assess mitogen-induced lymphocyte proliferation by peripheral blood mononuclear cells (PBMC). Whole blood culture was used in order to mimic in vivo conditions. Mitogens used were phytohemagglutinin (PHA), concanavalin A (Con A) and pokeweed mitogen (PWM). Whole blood was thoroughly mixed and then diluted 1:12 with RPMI-1640 containing 25 mM of Hepes, penicillin (100 U/mL) and streptomycin (100 μg/mL) (Sigma, St. Louis, Mo.). […] Triplicate 150 μL volumes were pipetted into 96-well round bottom plates and 50 μl of the appropriate mitogens added. The final concentrations of the mitogens in culture were 2 and 10 μg/mL for PHA, 1 and 5 μg/mL for Con A and 0.5 and 2.5 μg/mL for PWM. The two mitogen concentrations gave maximum (the higher mitogen concentration) and suboptimal (lower mitogen concentration) proliferative responses in preliminary studies using blood from similar animals. The mixture was incubated for 72 h at 37° C. in a humidified incubator under a 5% CO2 atmosphere. Four hours prior to the termination of the incubation period, 20 μL of [^3 H]-thymidine (1 [μCi/well) were added. Cells were harvested onto fiberglass filters and radioactivity was counted by liquid scintillation. Proliferation response of PBMC was expressed as stimulation index (cpm of stimulated cultures/cpm of unstimulated cultures).

[2] = test system: canine thyroid adenocarcinoma cells
Method: Fifty six female Beagle dogs (17 to 18 months old; average body weight 11.4±0.4 kg) were randomly assigned to be supplemented daily with 0, 5, 10 or 20 mg lutein for 17 weeks. The lutein contained 76.66% lutein and 5.23% zeaxanthin. The lutein supplement was resuspended in soybean oil to the appropriate concentration and 1 mL administered perorally at 0800 h daily. Food (200 g/dog/d) was offered immediately after the lutein supplementation. The basal diet met or exceeded the requirements for all essential nutrients (NRC 1985). All dogs were housed in 2×2 m pens (2 dogs/pen) in a temperature (20 to 22° C.) and light (14 h light) controlled facility. Body weight was recorded at weeks 0, 6, and 12.
as §4
Canine thyroid adenocarcinoma cells were used as target cells in assessing NK cell cytotoxic activity. […] Target cells were cultured in a T75 flask with 20 mL minimum essential medium (MEM; Sigma Chem. Co., St. Louis, Mo.) supplemented with 10% fetal calf serum (FC S), 100 U/mL of penicillin and 100 μg/mL of streptomycin. […] Optical density was measured at 570 nm using a microplate reader. The percentage of NK cell-specific lysis was calculated as follows: […]

IgM = IgM by single radial immunodiffusion, lutein supplementation; type: in vivo, dog (canine); settings: after revaccination on week 15
Method: (§1) Serum collected on weeks 0, 2, 4, 8 and 12 were analyzed for IgG and IgM concentrations by single radial immunodiffusion (SRID). In addition, all dogs were vaccinated with the polyvalent vaccine (Vanguard 5, Smithkline Beacham, West Chester, Pa.) on week 13 and again on week 15 to study the possible anamnestic effect of dietary lutein. Blood was collected weekly from week 13 through week 17. Goat antiserum to canine IgG (10%, whole molecule) or IgM (7.5%, μ chain specific) (ICN, Aurora, Ohio) was mixed with melted agarose (10 g/L in PBS; Sigma Chem. Co., St. Louis, Mo.) and the mixture solidified in SRID plates. Duplicate 5 μL volumes of serum or IgG (0, 2.88, 5.75, 11.5 and 23.0 mg/ml) or IgM (0, 0.25, 0.5, 1.0 and 2.0 mg/ml) standard were loaded into the wells. After incubating for 24 hours at room temperature in a humidified chamber, ring diameters were measured using a SRID reader (Transidyne General Corp., Ann Arbor, Minn.).

[3] = test system: polyvalent vaccine (specific antigen); assay: delayed type hypersensitivity response to vaccine / vaccine recognition, lutein supplementation; type: in vivo, dog (Beagle)
Method: (§2) Skin induration response was assessed in all dogs on weeks 0, 6, and 12. Dogs were injected intradermally in the flank area with saline (8.5 g/L; control), an attenuated polyvalent vaccine containing canine distemper virus, canine adenovirus type-2, canine parainfluenza virus and parvovirus (Vanguard 5, Smithkline Beacham, West Chester, Pa.; specific antigen), and PHA (0.5 g/L; nonspecific antigen). The doses of vaccine and PHA used were previously determined to provide optimal skin response in Beagle dogs of similar age. The injection site was clipped and wiped with 70% ethyl alcohol. The injection volume was 100 μL. Skin induration was measured at 0, 24, 48 and 72 h post-injection with the aid of a pressure-sensitive digital micrometer (Mitsutoyo, Tokyo, Japan) and response was expressed as a percentage of skin thickness measured at 0 h.

IL-2 = IL-2 production by PHA-stimulated PBMC in whole blood cultures, lutein supplementation; type: cell-based, dog (canine)
Method: Whole blood was diluted 1:2 with RPMI-1640 supplemented with Hepes and antibiotics (described earlier) and 400 μL of diluted blood were pipetted into 48-well plates (Costar, Cambridge, Mass.). Cells were stimulated with PHA (400 μL of a 5 μg/mL solution) for 48 hours at […] in a 5% CO2 atmosphere. The plates were centrifuged at 200×g for 10 minutes and the supernatant was frozen at -80° C. The IL-2 content of the culture supernatant was determined in triplicate by ELISA (Intergen, Purchase, N.Y.). The polyclonal anti-human IL-2 cross-reacted with canine IL-2 and recombinant human IL-2 was used as the standard.

mouse splenocytes = settings: dietary lutein; cited from earlier work
immune system = assay: summary of the results from each of the studies (Table 1); type: in vivo, dog
CD5+ total T cells = assay: lymphocyte subsets by flow cytometry, lutein supplementation; type: cell-based, dog (Beagle); settings: weeks 4 and 8, dogs fed lutein
Method: as §3, §4, §5, §6

[4] = test system: MHC class II expressing lymphocytes; assay: as above; type: cell-based, dog (Beagle); settings: 20 mg lutein, week 8 and 12
Method: as §3, §4, §5, §6

CD4+ T-helper cells = assay: as above; type: cell-based, dog (Beagle); settings: 5 and 10 mg lutein, week 12
Method: as §3, §4, §5, §6

[5] = test system: CD8+ T-cytotoxic/suppressor cells; settings: week 12
Method: as §3, §4, §5, §6

[6] = test system: plasma lipid peroxidation (malondialdehyde); assay: plasma lipid peroxidation (TBARS) assay, lutein supplementation; type: in vivo, dog (Beagle)
Method: Plasma lipid peroxidation activity was determined by measuring malondialdehyde (MDA) production. The standard used was 1,1,3,3-tetramethoxypropane JMP) (Sigma Chem. Co., St. Louis, Mo.). Duplicate 500 μL plasma samples were pipetted into 15 ml, glass tubes and 3 mL of 10 g/L phosphoric acid and 1 ml of 6 g/L TBA solution were added. The mixture was boiled in a water bath for 45 minutes. Tubes were allowed to cool and the TBA-MDA complex was extracted with 4 ml of n-butanol. The butanol layer was separated by centrifugation at 1,000×g for 10 minutes and absorbance was measured on at 532 nm (Beckman, Fullerton, Calif.). The TBARS activity was expressed in nmole MDA/L plasma.

[7] = test system: PHA (nonspecific antigen); assay: delayed type hypersensitivity response (skin induration) to PHA, lutein supplementation; type: in vivo, dog (Beagle)
Method: as §2

IgG = IgG by single radial immunodiffusion, lutein supplementation; type: in vivo, dog (canine)
Method: as §1

[8] = averaged across all treatments and all periods

CC1=C[C@H](O)CC(C)(C)[C@H]1/C=C/C(C)=C/C=C/C(C)=C/C=C/C=C(C)/C=C/C=C(C)/C=C/C1=C(C)C[C@@H](O)CC1(C)C [lutein]
plasma retinol concentration [8]: 3.63 ± 0.14 µmol/L
plasma α-tocopherol concentration [8]: 37 ± 2 µmol/L
plasma lutein+zeaxanthin vs unsupplemented animals (dog, in vivo): significantly higher
influence on plasma retinol and α-tocopherol (lutein supplementation): did not influence
CD21+ B cell population (CD21+ B cells): did not significantly influence
PWM-stimulated PBMC proliferative response ([1]; 10 mg lutein, week 8): higher proliferative response
Con A-stimulated PBMC proliferation ([1]; 10 mg lutein, weeks 8 and 12, 5 μg/mL Con A): higher PBMC proliferation
PWM-stimulated PBMC proliferation vs unsupplemented controls ([1]; 20 mg lutein, week 8 and 12, both concentrations of PWM): significantly higher PBMC proliferation
PHA-stimulated PBMC proliferative response vs unsupplemented dogs ([1]; 20 mg lutein, weeks 8 (10 pg/mL PHA) and 12 (2 and 10 μg/mL PHA), P<0.01): enhanced
Con A-stimulated PBMC proliferation ([1]; 20 mg lutein, weeks 8 and 12, both concentrations of Con A): higher PBMC proliferation
PHA-stimulated PBMC proliferation ([1]; 5 and 10 mg lutein, week 8, 10 μg/ml PHA): higher PBMC proliferation
spontaneous proliferation by unstimulated PBMC ([1]; no mitogen): did not significantly influence
PHA-stimulated PBMC response ([1]; weeks 0 and 4): no significant effect
PWM-stimulated PBMC proliferation, treatment difference ([1]; weeks 0 and 4): no significant treatment difference
NK cell cytotoxic activity [2]: did not significantly influence
specific lysis of target cells by PBMC ([2]; averaged across all treatments and sampling periods, E:T 10:1): 49.1±1.1%
concentration of plasma IgM (IgM): not changed
improvement of vaccine recognition ([3]; FIG. 2, addition of lutein to the diet): ≤ 32%
DTH response to vaccine ([3]; week 6, 48 and 72 h post-injection): dose-related
DTH response to vaccine ([3]; week 6, 24 h): not significant
DTH response to vaccine ([3]; week 12): no significant dietary effect
concentrations of IL-2 in culture medium (IL-2; averaged throughout the study, all treatments): 15.7 ± 0.4 ng/mL
production of IL-2 by PHA-stimulated PBMC (IL-2; throughout the experimental period): did not differ significantly
lymphocyte proliferation in mouse splenocytes (mouse splenocytes): enhance lymphocyte proliferation
Optimize vaccine recognition by the dog (immune system; Table 1): .check mark.
Optimize immune cell activity (B-cells) (immune system; Table 1, Lutein column): .check mark.
percentages of CD5+ cells vs unsupplemented controls (CD5+ total T cells): generally had higher percentages
% MHC class II cell populations vs unsupplemented dogs [4]: elevated
% CD4+ cells (CD4+ T-helper cells): higher
CD8+ population [5]: not influenced by the diet
plasma TBARS activity ([6]; averaged across all treatments and periods): 95.8±0.1 nmol MDA/L
effect on plasma TBARS activity ([6]; lutein supplementation): did not significantly affect
DTH response to PHA, treatment difference ([7]; week 6, 48 and 72 h): no significant treatment difference
DTH response to PHA ([7]; week 6, 24 h post-injection): dose-related DTH response
DTH response to PHA vs unsupplemented dogs ([7]; week 12, 20 mg lutein): significantly higher
DTH response to PHA ([7]; week 12, 24, 48 and 72 h): general dose-dependent increase
plasma IgG (IgG; 5 mg lutein, week 16, after revaccination on week 15, P<0.05): higher
plasma IgG (IgG; 20 mg lutein, week 17, after revaccination on week 15): higher
